Calls of active or inactive are those of the source. The calls are words filed in the database; no cut-off is given here. Where a SMILES comes first, the peptide text is derived from it. The star is where a group is joined. Cbz = O=C(OCc1ccccc1)*
Legend:
HepG2-ARE-C8 [1] = assay: Activation of Nrf2-ARE pathway in human HepG2-ARE-C8 cells assessed as fold upregulation of ARE-inducing luciferase activity at 10 uM measured after 24 hrs by luciferase reporter gene assay; type: cell-based; details: filed as activator
HepG2-ARE-C8 [2] = assay: Activation of Nrf2-ARE pathway in human HepG2-ARE-C8 cells assessed as fold upregulation of ARE-inducing luciferase activity at 20 uM measured after 24 hrs by luciferase reporter gene assay; type: cell-based; details: filed as activator
HepG2-ARE-C8 [3] = assay: Activation of Nrf2-ARE pathway in human HepG2-ARE-C8 cells assessed as fold upregulation of ARE-inducing luciferase activity at 40 uM measured after 24 hrs by luciferase reporter gene assay; type: cell-based; details: filed as activator
HepG2-ARE-C8 [4] = assay: Activation of Nrf2-ARE pathway in human HepG2-ARE-C8 cells assessed as fold upregulation of ARE-inducing luciferase activity at 80 uM measured after 24 hrs by luciferase reporter gene assay; type: cell-based; details: filed as activator
HepG2-ARE-C8 [5] = assay: Activation of Nrf2-ARE pathway in human HepG2-ARE-C8 cells assessed as fold upregulation of ARE-inducing luciferase activity at 160 uM measured after 24 hrs by luciferase reporter gene assay; type: cell-based; details: filed as activator
[6] = target: T1, Nuclear factor erythroid 2-related factor 2 (Rattus norvegicus) (UniProt O54968); assay: Activation of Nrf2 in rat PC-12 cells assessed as upregulation of HO-1 protein expression measured after 24 hrs by Western blot analysis; type: cell-based; details: filed as activator, dose 10-40 µM, DDE = dose-dependent effect
T1 sequence (whole entry): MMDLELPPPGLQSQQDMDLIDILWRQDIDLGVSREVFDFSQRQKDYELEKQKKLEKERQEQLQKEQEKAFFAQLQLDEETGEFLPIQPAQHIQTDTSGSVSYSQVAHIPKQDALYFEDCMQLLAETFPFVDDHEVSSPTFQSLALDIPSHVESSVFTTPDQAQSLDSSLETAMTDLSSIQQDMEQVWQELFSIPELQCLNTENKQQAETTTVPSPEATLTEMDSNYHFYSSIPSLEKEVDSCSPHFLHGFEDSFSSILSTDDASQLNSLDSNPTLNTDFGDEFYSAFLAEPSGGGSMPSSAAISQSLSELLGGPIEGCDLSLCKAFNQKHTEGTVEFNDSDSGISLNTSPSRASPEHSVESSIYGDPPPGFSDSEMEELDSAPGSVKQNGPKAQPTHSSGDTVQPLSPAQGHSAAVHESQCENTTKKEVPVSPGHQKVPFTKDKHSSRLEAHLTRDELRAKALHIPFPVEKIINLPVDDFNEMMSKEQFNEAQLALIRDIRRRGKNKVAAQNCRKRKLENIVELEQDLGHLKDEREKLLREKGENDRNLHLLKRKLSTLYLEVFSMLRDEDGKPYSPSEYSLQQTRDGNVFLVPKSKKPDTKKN

[7] = target: T1, Nuclear factor erythroid 2-related factor 2 (Rattus norvegicus); assay: Activation of Nrf2 in rat PC-12 cells assessed as upregulation of NQO1 protein expression measured after 24 hrs by Western blot analysis; type: cell-based; details: filed as activator, dose 10-40 µM, DDE = dose-dependent effect
[8] = target: T1, Nuclear factor erythroid 2-related factor 2 (Rattus norvegicus); assay: Activation of Nrf2 in rat PC-12 cells assessed as upregulation of Nrf2 protein expression measured after 24 hrs by Western blot analysis; type: cell-based; details: filed as activator, dose 10-40 µM, DDE = dose-dependent effect
THP-1 [9] = assay: Antiinflammatory activity in PMA-differentiated and LPS-stimulated human THP-1 cell model assessed as inhibition of NLRP3 inflammasome-driven IL-1beta production at 15 uM incubated for 24 hrs followed by LPS stimulation for 3 hrs and ATP addition for 1 hr by ELISA; type: functional; parameters: scale not given: the % may be the effect or the level left
THP-1 [10] = assay: Antiinflammatory activity in PMA-differentiated and LPS-stimulated human THP-1 cell model assessed as inhibition of NLRP3 inflammasome-driven IL-1beta production at 30 uM incubated for 24 hrs followed by LPS stimulation for 3 hrs and ATP addition for 1 hr by ELISA; type: functional; parameters: scale not given: the % may be the effect or the level left
THP-1 [11] = assay: Antiinflammatory activity in PMA-differentiated and LPS-stimulated human THP-1 cell model assessed as inhibition of NLRP3 inflammasome-driven IL-1beta production at 45 uM incubated for 24 hrs followed by LPS stimulation for 3 hrs and ATP addition for 1 hr by ELISA; type: functional; parameters: scale not given: the % may be the effect or the level left
[12] = Cytotoxicity against human THP-1 cells assessed as reduction in cell viability measured after 24 hrs by MTT assay; type: toxicity, cell-based
[13] = target: T1, Nuclear factor erythroid 2-related factor 2 (Rattus norvegicus); assay: Activation of Nrf2 in rat PC-12 cells assessed as reduction of Nrf2 in cytoplasm at 20 uM measured after 4 hrs by western blot analysis; type: cell-based; details: filed as activator
[14] = target: T1, Nuclear factor erythroid 2-related factor 2 (Rattus norvegicus); assay: Activation of Nrf2 in rat PC-12 cells assessed as upregulation of Nrf2 in nucleus at 20 uM measured after 4 hrs by western blot analysis; type: cell-based; details: filed as activator
PC-12 [15] = assay: Cytoprotective activity against H2O2-induced oxidative damage in rat PC-12 assessed as increase in cell viability preincubated for 24 hrs followed by H2O2 stimulation for 3 hrs by MTT assay; type: functional, cell-based; details: dose 5-80 µM, DDE = dose-dependent effect
[16] = target: 26S proteasome non-ATPase regulatory subunit 11 (Homo sapiens, UniProt O00231); assay: Binding affinity to biotinylated recombinant Rpn6 (unknown origin) assessed as dissociation constant by biolayer interferometry analysis
Sequence of 26S proteasome non-ATPase regulatory subunit 11 (O00231 whole entry): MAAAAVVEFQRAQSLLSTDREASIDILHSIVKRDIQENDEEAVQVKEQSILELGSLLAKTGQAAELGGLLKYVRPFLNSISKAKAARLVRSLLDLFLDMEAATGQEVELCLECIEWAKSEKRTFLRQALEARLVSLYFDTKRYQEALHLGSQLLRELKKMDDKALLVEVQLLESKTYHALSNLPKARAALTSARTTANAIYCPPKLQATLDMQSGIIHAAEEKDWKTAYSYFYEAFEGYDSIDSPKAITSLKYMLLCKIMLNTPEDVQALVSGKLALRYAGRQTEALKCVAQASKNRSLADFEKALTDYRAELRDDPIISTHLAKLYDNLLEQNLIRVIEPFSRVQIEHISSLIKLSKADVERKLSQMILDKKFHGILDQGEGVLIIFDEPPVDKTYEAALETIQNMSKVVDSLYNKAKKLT

[17] = target: 26S proteasome non-ATPase regulatory subunit 11 (Rattus norvegicus) (UniProt F1LMZ8); assay: Binding affinity to biotinylated recombinant Rpn6 in rat PC-12 cells at 100 to 200 uM incubation for overnight by pull-down assay based SDS-PAGE analysis; type: cell-based; details: filed as activator, dose 100-200 µM, DDE = dose-dependent effect
Sequence of 26S proteasome non-ATPase regulatory subunit 11 (Rattus norvegicus) (F1LMZ8 whole entry): as the sequence (O00231 whole entry) above

[18] = target: T1, Nuclear factor erythroid 2-related factor 2 (Rattus norvegicus); assay: Inhibition of Nrf2 degradation in rat PC-12 cells assessed as accumulation of ubiquitinated Nrf2 at 40 uM incubated for 6 hrs by Western blot analysis; type: cell-based
[19] = target: T1, Nuclear factor erythroid 2-related factor 2 (Rattus norvegicus); assay: Inhibition of Nrf2 degradation in rat PC-12 cells assessed as accumulation of ubiquitinated Nrf2 at 40 uM incubated for 6 hrs in presence of proteasome inhibitor MG132 by Western blot analysis; type: cell-based
[20] = target: T1, Nuclear factor erythroid 2-related factor 2 (Rattus norvegicus); assay: Inhibition of Nrf2 degradation in rat PC-12 cells assessed as increase in ubiquitinated Nrf2 at 40 uM incubated for 6 hrs by co-immunoprecipitation based Western blot analysis; type: cell-based
[21] = target: T1, Nuclear factor erythroid 2-related factor 2 (Rattus norvegicus); assay: Inhibition of Nrf2 degradation in rat PC-12 cells assessed as increase in ubiquitinated Nrf2 at 40 uM incubated for 6 hrs in presence of proteasome inhibitor MG132 by co-immunoprecipitation based Western blot analysis; type: cell-based
PC-12 [22] = assay: Induction of cell membrane permeability in rat PC-12 cells at 60 uM measured after 10 hrs by fluorescence microscopic analysis; type: cell-based
[23] = target: 26S proteasome non-ATPase regulatory subunit 11 (Rattus norvegicus) (UniProt F1LMZ8); assay: Binding affinity to recombinant Rpn6 in rat PC-12 cells at 60 uM measured after 12 hrs by DAPI staining based fluorescence microscope assay; type: cell-based; details: filed as activator
[24] = target: T1, Nuclear factor erythroid 2-related factor 2 (Rattus norvegicus); assay: Inhibition of Nrf2 degradation in rat PC-12 cells assessed as accumulation of ubiquitinated Nrf2 at 10 uM incubated for 6 hrs by Western blot analysis; type: cell-based

SMILES | fold change (FC) (HepG2-ARE-C8 [1]) | fold change (FC) (HepG2-ARE-C8 [2]) | fold change (FC) (HepG2-ARE-C8 [3]) | fold change (FC) (HepG2-ARE-C8 [4]) | fold change (FC) (HepG2-ARE-C8 [5]) | Activity (THP-1 [9]) [%] | Activity (THP-1 [10]) [%] | Activity (THP-1 [11]) [%] | IC50 at 24 h [12] [µM] | further results
Cc1ccc(-c2noc(-c3ccc(F)cc3)n2)cn1 | 2.08 | 2.75 | 7.14 | 31.7 | 29.6 | 49.86 | 53.91 | 85.46 | > 100 | Activity [6]: Dde; Activity [7]: Dde; Activity [8]: Dde; Activity [13]: Active; Activity [14]: Active
Cc1ccc(-c2noc(-c3ccc(F)cc3NC(=O)CCCCCNC(=O)CCCC[C@@H]3SC[C@@H]4NC(=O)N[C@@H]43)n2)cn1 | 4.96 | 5.59 | 6.69 | 7.1 | 11.8 | 33.81 | 64.61 | 97.72 | > 100 | Activity [6]: Dde; Activity [7]: Dde; Activity [8]: Dde; Activity (PC-12 [15]): Dde; Kd [16]: 1.38 µM; Activity [17]: Dde; Activity [13]: Active; Activity [14]: Active
Fc1ccc(-c2nc(-c3ccc4nc[nH]c4c3)no2)cc1 | 4.53 | 4.19 | 7.5 | 19.3 | 31.5 | 87.24 | 98.39 | 102.6 | > 100 | Kd [16]: 8.53 µM; Activity [18]: Active; Activity [19]: Active; Activity [20]: Active; Activity [21]: Active
O=C(O)CCCC[C@@H]1SC[C@@H]2NC(=O)N[C@@H]21 | 1.55 | 1.12 | 1.18 | 1.45 | 1.55 | – | – | – | – | –
Cc1ccc(-c2noc(-c3ccc(F)cc3NC(=O)CCCCCNC(=S)Nc3ccc4c(c3)C(=O)OC43c4ccc(O)cc4Oc4cc(O)ccc43)n2)cn1 | 2.62 | 2.28 | 2.3 | 2.71 | 6.42 | 67.9 | 77.63 | 89.34 | > 100 | Activity (PC-12 [22]): Active; Activity [23]: Active
CC(C)(C)c1cc(O)ccc1O [E319] | 2.94 | 3.13 | 2.98 | 12 | 15.9 | 50.88 | 58.58 | 98.29 | > 100 | –
CCNC(=O)CCCCCNC(C)=O | 1.17 | 1.17 | 1.41 | 1.22 | 1.22 | -2.73 | 3.52 | 2.89 | > 100 | –
CC(C)C[C@@H](C=O)NC(=O)[C@H](CC(C)C)NC(=O)[C@H](CC(C)C)NC(=O)OCc1ccccc1 (Cbz-Leu-Leu-Leu-aldehyde) | – | – | – | – | – | – | – | – | – | Activity [24]: Active

— ChEMBL document CHEMBL5154780, “Target Fishing Reveals a Novel Mechanism of 1,2,4-Oxadiazole Derivatives Targeting Rpn6, a Subunit of 26S Proteasome” (J Med Chem, 2022)
